Assay results: patent publication US20260325473A1, “N-Beta-Hydroxybutyryl-Amino Acids and Related Compositions and Methods” (The Board of Trustees of the Leland Stanford Junior …, priority 2023, published 2026)

How the values were obtained:
brain lysate proteins = assay: Competition of X-Phe photoprobe-labeled brain proteins, quantitative shotgun proteomics; format: binding, mouse; details: 100 μM photoprobe; 50-fold excess competitor
Procedure: Shotgun proteomics of X-Phe photoprobe-labeled proteins. Brains from wild type C57BL/6J mice were harvested and homogenized using a bead blaster in PBS. Brain homogenate was centrifuged (15,000 rpm, 10 min) to yield the cytosolic supernatant and membrane pellet fractions. The cytosolic fraction was transferred to a new eppie and centrifuged again (15,000 rpm, 10 min). This process was repeated 4 times until no pellet was present after centrifugation. The membrane pellet was washed with 1 ml PBS and centrifuged (15,000 rpm, 10 min); this step was also repeated 4 times to remove any cytosolic protein contamination. After the centrifugation steps, the membrane pellet was re-suspended in PBS and sonicated. For competition experiments, brain lysate was normalized to 2 mg/ml in PBS and incubated with competitors at the indicated concentrations at room temperature for 30 minutes. 100 μM of the photoprobe was added and the reactions incubated on ice for 10 minutes protected from light. Reactions were then put under UV for 1 min on a UV Stratalinker. A biotin click reaction was performed by adding the following reagents to the indicated final concentrations: […], 1 mM CuSO4, 1 mM TCEP (freshly prepared), 30 μM Biotin-N3. Reactions were allowed to proceed for 1 hour at room temp, protected from light, and while rotating. The following prep was adapted from Niphakis et al. 2015. To each reaction, the following solvents were added in order, 4 ml cold methanol, 1 ml cold chloroform, 2 ml cold PBS. The mixture was vortexed well and centrifuged (4,600×g, 15 min, 4° C.). After centrifugation the organic and aqueous layers were removed without disruption of the protein disc. The protein disc was washed with a cold 1:1 mixture of methanol:chloroform 3 times. After the final wash, the protein disc was re-suspended in a 4:1 mixture of methanol:chloroform and sonicated. The insoluble protein was pelleted by centrifugation (4,600×g, 15 min, 4 C) and the pellet re-suspended in freshly prepared 500 μl of 6 M urea in PBS. 20 μl of 10% (w/v) SDS was added to the solution. The solution was then warmed in a 37 C water bath for 10 min to help dissolve poorly soluble protein. A streptavidin pulldown was the performed on the protein mixture. 250 μl of streptavidin beads were washed 3 times with 1 ml PBS. Protein samples were diluted with 5.5 ml of 0.25% SDS in PBS and incubated with streptavidin beads for 1.5 hr at room temperature. Following incubation, beads were washed 5 times each with 0.25% SDS in PBS, then PBS, then lastly with ultra-pure water Steptavidin beads were suspended in 150 μL resuspension buffer (1 M urea, 50 mM Tris-HCl, pH 8). Proteins were digested with 3 μg of trypsin for 4 hours. Digested peptides were reduced with 5 mM TCEP for 10 minutes. Cys residues were alkylated using 15 mM iodoacetimide (IAA) for 20 minutes. Finally, excess IAA was quenched with 10 mM DTT. Acidified digested peptides were desalted over C18 StageTips [PMID: 12585499]. Peptides were then eluted with 80% acetonitrile, 0.1% TFA and dried in a speedvac. Dried samples were reconstituted with 200 mM EPPS buffer, pH 8.0, and labelled with TMT reagents (Thermo Fisher Scientific). Following incubation at room temperature for 2 h, the reactions were quenched with hydroxylamine to a final concentration of 0.5% (v/v). […]

[1] = test system: diet-induced obese (DIO) mice; assay: Acute administration in DIO mice in metabolic chambers; format: in vivo, mouse; details: 50 mg/kg IP, single
Procedure: General animal information. Animal experiments were performed according to procedure approved by the Stanford University Administrative Panel on Laboratory Animal Care (APLAC). Mice were maintained in 12-hr light-dark cycles at 22° C. and ~50% relative humidity and fed a standard irradiated rodent chow diet. Where indicated, high-fat diet (D12492, Research Diets 60% kcal from fat) and ketogenic diet (D06040601, Research Diets, 80% kcal fat/15% kcal protein/5% kcal carbohydrate) was used. Male C57BL/6J (stock no. 000664) and male C57BL/6J DIO mice (stock no. 380050) were purchased from Jackson Laboratory. Male C57BL/6NCrl (stock no. 027) mice were purchased from Charles River Laboratory. Whole body CNDP2-KO mice (catalog number, C57BL/6NCrl-Cndp2em1 (IMPC) Mbp/Mmucd, RRID: MMRRC_043492-UCD) were obtained from the Mutant Mouse Regional Resource Center, a NCRR-NIH funded strain repository. For in vivo injection of mice with metabolites, compounds were dissolved in 18:1:1 (by volume) of saline/Kolliphor EL (Sigma Aldrich)/DMSO. Compounds were administered to mice daily via intraperitoneal injections at 5 μl/g body weight at the indicated doses. For all injection experiments, mice were mock injected with the vehicle for 3-5 days until body weights have stabilized. Sample sizes were determined on the basis of previous experiments using similar methodologies. For metabolite administration experiments, mice were randomly assigned to treatment groups. Experimenters were not blinded to groups.

CC(O)CC(=O)N[C@@H](Cc1ccccc1)C(=O)O (stereo partly drawn) [BHB-Phe, N-betahydroxybutyryl-phenylalanine]
competition of X-Phe photoprobe-labeled proteins (brain lysate proteins): > 80%
number of brain proteins crosslinked by X-Phe photoprobe and >80% competed by Keto-Phe (brain lysate proteins): 32 proteins
food intake (metabolic chambers) [1]: reduced food intake
ambulatory movement ([1]; over 10 h): without affecting movement
energy expenditure: carbon dioxide production (VCO2) ([1]; over 10 h): without affecting movement, oxygen consumption or CO^2 production
energy expenditure: oxygen consumption (VO2) ([1]; over 10 h): without affecting movement, oxygen consumption
reduction of food intake ([1]; over 10 h): ~ 30%
respiratory exchange ratio (RER) ([1]; over 10 h): reduction in respiratory exchange ratio (RER)
ambulatory movement ([1]; over 10 h, listed as Keto-Phe): no effects
energy expenditure: carbon dioxide production (VCO2) ([1]; over 10 h, listed as Keto-Phe): no effects
energy expenditure: oxygen consumption (VO2) ([1]; over 10 h, listed as Keto-Phe): no effects
respiratory exchange ratio (RER) ([1]; over 10 h, listed as Keto-Phe): no effects
